Test results as given in ChEMBL document CHEMBL3797052 (Eur J Med Chem, 2016).

Tested on: not listed separately
Assay: Antiproliferative activity against human NCI-ADR-RES cells assessed as cell growth at 10^-5 M after 48 hrs by sulforhodamine B assay
Assay type: functional
Details: read-out: Activity
For `CNC(=O)c1cc(Oc2ccc3nc(NC(=O)c4ccc5c(c4)OCCO5)sc3c2)ccn1`, the growth at 10 µM was 95.8%. `CNC(=O)c1cc(Oc2ccc3nc(NC(=O)c4ccc(Cl)c(C(F)(F)F)c4)sc3c2)ccn1` gave a growth at 10 µM of 64.9%.

Tested on: HT-29
Assay: Antiproliferative activity against human HT-29 cells assessed as cell growth at 10^-5 M after 48 hrs by sulforhodamine B assay
Assay type: functional
Details: HT-29, 48 h, read-out: Activity
In the case of `CNC(=O)c1cc(Oc2ccc3nc(NC(=O)c4ccc5c(c4)OCCO5)sc3c2)ccn1`, the growth at 10 µM is reported as 71.3%. In the case of `CNC(=O)c1cc(Oc2ccc3nc(NC(=O)c4ccc(Cl)c(C(F)(F)F)c4)sc3c2)ccn1`, the growth at 10 µM is reported as 68.1%.

Tested on: not listed separately
Assay: Antiproliferative activity against human LOXIMVI cells assessed as cell growth at 10^-5 M after 48 hrs by sulforhodamine B assay
Assay type: functional
Details: LOX IMVI, read-out: Activity
`CNC(=O)c1cc(Oc2ccc3nc(NC(=O)c4ccc5c(c4)OCCO5)sc3c2)ccn1` gave a growth at 10 µM of 97.8%. Compound `CNC(=O)c1cc(Oc2ccc3nc(NC(=O)c4ccc(Cl)c(C(F)(F)F)c4)sc3c2)ccn1` has a growth at 10 µM of 71.2%.

Tested on: ACHN
Assay: Antiproliferative activity against human ACHN cells assessed as cell growth at 10^-5 M after 48 hrs by sulforhodamine B assay
Assay type: functional
Details: read-out: Activity
In the case of `CNC(=O)c1cc(Oc2ccc3nc(NC(=O)c4ccc5c(c4)OCCO5)sc3c2)ccn1`, the growth at 10 µM is reported as 106%. Compound `CNC(=O)c1cc(Oc2ccc3nc(NC(=O)c4ccc(Cl)c(C(F)(F)F)c4)sc3c2)ccn1` has a growth at 10 µM of 60.6%.

Tested on: not listed separately
Assay: Antiproliferative activity against human HCT116 cells assessed as cell growth at 10^-5 M after 48 hrs by sulforhodamine B assay
Assay type: functional
Details: HCT-116, 48 h, read-out: Activity
Work on `CNC(=O)c1cc(Oc2ccc3nc(NC(=O)c4ccc5c(c4)OCCO5)sc3c2)ccn1` yielded a growth at 10 µM of 89.6%. Compound `CNC(=O)c1cc(Oc2ccc3nc(NC(=O)c4ccc(Cl)c(C(F)(F)F)c4)sc3c2)ccn1` has a growth at 10 µM of 61.9%.

Tested on: not listed separately
Assay: Antiproliferative activity against human UACC62 cells assessed as cell growth at 10^-5 M after 48 hrs by sulforhodamine B assay
Assay type: functional
Details: UACC-62, 48 h, read-out: Activity
For `CNC(=O)c1cc(Oc2ccc3nc(NC(=O)c4ccc5c(c4)OCCO5)sc3c2)ccn1`, the growth at 10 µM was 102%. With `CNC(=O)c1cc(Oc2ccc3nc(NC(=O)c4ccc(Cl)c(C(F)(F)F)c4)sc3c2)ccn1` the growth at 10 µM was 81.1%.

Tested on: SR
Assay: Antiproliferative activity against human SR cells assessed as cell growth at 10^-5 M after 48 hrs by sulforhodamine B assay
Assay type: functional
Details: read-out: Activity
For `CNC(=O)c1cc(Oc2ccc3nc(NC(=O)c4ccc5c(c4)OCCO5)sc3c2)ccn1`, the growth at 10 µM was 88.3%. `CNC(=O)c1cc(Oc2ccc3nc(NC(=O)c4ccc(Cl)c(C(F)(F)F)c4)sc3c2)ccn1` gave a growth at 10 µM of 37.6%.

Tested on: not listed separately
Assay: Antiproliferative activity against human DU145 cells assessed as cell growth at 10^-5 M after 48 hrs by sulforhodamine B assay
Assay type: functional
Details: DU-145, 48 h, read-out: Activity
Work on `CNC(=O)c1cc(Oc2ccc3nc(NC(=O)c4ccc5c(c4)OCCO5)sc3c2)ccn1` yielded a growth at 10 µM of 98.5%. With `CNC(=O)c1cc(Oc2ccc3nc(NC(=O)c4ccc(Cl)c(C(F)(F)F)c4)sc3c2)ccn1` the growth at 10 µM was 73%.

Tested on: not listed separately
Assay: Antiproliferative activity against human SNB19 cells assessed as cell growth at 10^-5 M after 48 hrs by sulforhodamine B assay
Assay type: functional
Details: SNB-19, 48 h, read-out: Activity
In the case of `CNC(=O)c1cc(Oc2ccc3nc(NC(=O)c4ccc5c(c4)OCCO5)sc3c2)ccn1`, the growth at 10 µM is reported as 101%.

Tested on: not listed separately
Assay: Antiproliferative activity against human RXF393 cells assessed as cell growth at 10^-5 M after 48 hrs by sulforhodamine B assay
Assay type: functional
Details: RXF 393, 48 h, read-out: Activity
For `CNC(=O)c1cc(Oc2ccc3nc(NC(=O)c4ccc5c(c4)OCCO5)sc3c2)ccn1`, the growth at 10 µM was 102%. With `CNC(=O)c1cc(Oc2ccc3nc(NC(=O)c4ccc(Cl)c(C(F)(F)F)c4)sc3c2)ccn1` the growth at 10 µM was 47.9%.

Tested on: CCRF-CEM
Assay: Antiproliferative activity against human CCRF-CEM cells assessed as cell growth at 10^-5 M after 48 hrs by sulforhodamine B assay
Assay type: functional
Details: read-out: Activity
`CNC(=O)c1cc(Oc2ccc3nc(NC(=O)c4ccc5c(c4)OCCO5)sc3c2)ccn1` gave a growth at 10 µM of 98.4%. Work on `CNC(=O)c1cc(Oc2ccc3nc(NC(=O)c4ccc(Cl)c(C(F)(F)F)c4)sc3c2)ccn1` yielded a growth at 10 µM of 68.4%.

Tested on: not listed separately
Assay: Antiproliferative activity against human HCC2998 cells assessed as cell growth at 10^-5 M after 48 hrs by sulforhodamine B assay
Assay type: functional
Details: HCC 2998, 48 h, read-out: Activity
In the case of `CNC(=O)c1cc(Oc2ccc3nc(NC(=O)c4ccc5c(c4)OCCO5)sc3c2)ccn1`, the growth at 10 µM is reported as 103%. For `CNC(=O)c1cc(Oc2ccc3nc(NC(=O)c4ccc(Cl)c(C(F)(F)F)c4)sc3c2)ccn1`, the growth at 10 µM was 74.8%.

Tested on: not listed separately
Assay: Antiproliferative activity against human SF268 cells assessed as cell growth at 10^-5 M after 48 hrs by sulforhodamine B assay
Assay type: functional
Details: SF-268, 48 h, read-out: Activity
`CNC(=O)c1cc(Oc2ccc3nc(NC(=O)c4ccc5c(c4)OCCO5)sc3c2)ccn1` gave a growth at 10 µM of 96.6%. Work on `CNC(=O)c1cc(Oc2ccc3nc(NC(=O)c4ccc(Cl)c(C(F)(F)F)c4)sc3c2)ccn1` yielded a growth at 10 µM of 85.3%.

Tested on: not listed separately
Assay: Antiproliferative activity against human SW620 cells assessed as cell growth at 10^-5 M after 48 hrs by sulforhodamine B assay
Assay type: functional
Details: SW-620, 48 h, read-out: Activity
Compound `CNC(=O)c1cc(Oc2ccc3nc(NC(=O)c4ccc5c(c4)OCCO5)sc3c2)ccn1` has a growth at 10 µM of 107%. With `CNC(=O)c1cc(Oc2ccc3nc(NC(=O)c4ccc(Cl)c(C(F)(F)F)c4)sc3c2)ccn1` the growth at 10 µM was 92.4%.

Tested on: not listed separately
Assay: Antiproliferative activity against human PC3 cells assessed as cell growth at 10^-5 M after 48 hrs by sulforhodamine B assay
Assay type: functional
Details: PC-3, 48 h, read-out: Activity
`CNC(=O)c1cc(Oc2ccc3nc(NC(=O)c4ccc5c(c4)OCCO5)sc3c2)ccn1` showed a growth at 10 µM of 95.8%. For `CNC(=O)c1cc(Oc2ccc3nc(NC(=O)c4ccc(Cl)c(C(F)(F)F)c4)sc3c2)ccn1`, the growth at 10 µM was 62.7%.

Tested on: not listed separately
Assay: Antiproliferative activity against human SF539 cells assessed as cell growth at 10^-5 M after 48 hrs by sulforhodamine B assay
Assay type: functional
Details: SF-539, 48 h, read-out: Activity
With `CNC(=O)c1cc(Oc2ccc3nc(NC(=O)c4ccc5c(c4)OCCO5)sc3c2)ccn1` the growth at 10 µM was 100%. For `CNC(=O)c1cc(Oc2ccc3nc(NC(=O)c4ccc(Cl)c(C(F)(F)F)c4)sc3c2)ccn1`, the growth at 10 µM was 69.9%.

Tested on: EKVX
Assay: Antiproliferative activity against human EKVX cells assessed as cell growth at 10^-5 M after 48 hrs by sulforhodamine B assay
Assay type: functional
Details: read-out: Activity
In the case of `CNC(=O)c1cc(Oc2ccc3nc(NC(=O)c4ccc5c(c4)OCCO5)sc3c2)ccn1`, the growth at 10 µM is reported as 99%. With `CNC(=O)c1cc(Oc2ccc3nc(NC(=O)c4ccc(Cl)c(C(F)(F)F)c4)sc3c2)ccn1` the growth at 10 µM was 78.8%.

Tested on: NCI-H322M
Assay: Antiproliferative activity against human NCI-H322M cells assessed as cell growth at 10^-5 M after 48 hrs by sulforhodamine B assay
Assay type: functional
Details: read-out: Activity
In the case of `CNC(=O)c1cc(Oc2ccc3nc(NC(=O)c4ccc5c(c4)OCCO5)sc3c2)ccn1`, the growth at 10 µM is reported as 99%. With `CNC(=O)c1cc(Oc2ccc3nc(NC(=O)c4ccc(Cl)c(C(F)(F)F)c4)sc3c2)ccn1` the growth at 10 µM was 87.4%.

Tested on: not listed separately
Assay: Antiproliferative activity against human HL-60(TB) cells assessed as cell growth at 10^-5 M after 48 hrs by sulforhodamine B assay
Assay type: functional
Details: HL-60, 48 h, read-out: Activity
For `CNC(=O)c1cc(Oc2ccc3nc(NC(=O)c4ccc5c(c4)OCCO5)sc3c2)ccn1`, the growth at 10 µM was 93.7%. In the case of `CNC(=O)c1cc(Oc2ccc3nc(NC(=O)c4ccc(Cl)c(C(F)(F)F)c4)sc3c2)ccn1`, the growth at 10 µM is reported as 89.4%.

Tested on: MDA-MB-435
Assay: Antiproliferative activity against human MDA-MB-435 cells assessed as cell growth at 10^-5 M after 48 hrs by sulforhodamine B assay
Assay type: functional
Details: MDA-MB-435, 48 h, read-out: Activity
In the case of `CNC(=O)c1cc(Oc2ccc3nc(NC(=O)c4ccc5c(c4)OCCO5)sc3c2)ccn1`, the growth at 10 µM is reported as 98.5%. In the case of `CNC(=O)c1cc(Oc2ccc3nc(NC(=O)c4ccc(Cl)c(C(F)(F)F)c4)sc3c2)ccn1`, the growth at 10 µM is reported as 80.4%.

Tested on: K562
Assay: Antiproliferative activity against human K562 cells assessed as cell growth at 10^-5 M after 48 hrs by sulforhodamine B assay
Assay type: functional
Details: K562, 48 h, read-out: Activity
Work on `CNC(=O)c1cc(Oc2ccc3nc(NC(=O)c4ccc5c(c4)OCCO5)sc3c2)ccn1` yielded a growth at 10 µM of 91.2%. `CNC(=O)c1cc(Oc2ccc3nc(NC(=O)c4ccc(Cl)c(C(F)(F)F)c4)sc3c2)ccn1` gave a growth at 10 µM of 69.9%.

Tested on: NCI-H23
Assay: Antiproliferative activity against human NCI-H23 cells assessed as cell growth at 10^-5 M after 48 hrs by sulforhodamine B assay
Assay type: functional
Details: NCI-H23, 48 h, read-out: Activity
In the case of `CNC(=O)c1cc(Oc2ccc3nc(NC(=O)c4ccc5c(c4)OCCO5)sc3c2)ccn1`, the growth at 10 µM is reported as 90%. `CNC(=O)c1cc(Oc2ccc3nc(NC(=O)c4ccc(Cl)c(C(F)(F)F)c4)sc3c2)ccn1` showed a growth at 10 µM of 69.1%.

Tested on: not listed separately
Assay: Antiproliferative activity against human OVCAR5 cells assessed as cell growth at 10^-5 M after 48 hrs by sulforhodamine B assay
Assay type: functional
Details: OVCAR-5, 48 h, read-out: Activity
Work on `CNC(=O)c1cc(Oc2ccc3nc(NC(=O)c4ccc5c(c4)OCCO5)sc3c2)ccn1` yielded a growth at 10 µM of 99.1%. In the case of `CNC(=O)c1cc(Oc2ccc3nc(NC(=O)c4ccc(Cl)c(C(F)(F)F)c4)sc3c2)ccn1`, the growth at 10 µM is reported as 93.3%.

Tested on: not listed separately
Assay: Antiproliferative activity against human SF295 cells assessed as cell growth at 10^-5 M after 48 hrs by sulforhodamine B assay
Assay type: functional
Details: SF-295, 48 h, read-out: Activity
For `CNC(=O)c1cc(Oc2ccc3nc(NC(=O)c4ccc5c(c4)OCCO5)sc3c2)ccn1`, the growth at 10 µM was 99.7%. For `CNC(=O)c1cc(Oc2ccc3nc(NC(=O)c4ccc(Cl)c(C(F)(F)F)c4)sc3c2)ccn1`, the growth at 10 µM was 78.3%.

Tested on: U-251
Assay: Antiproliferative activity against human U251 cells assessed as cell growth at 10^-5 M after 48 hrs by sulforhodamine B assay
Assay type: functional
Details: U-251, 48 h, read-out: Activity
With `CNC(=O)c1cc(Oc2ccc3nc(NC(=O)c4ccc5c(c4)OCCO5)sc3c2)ccn1` the growth at 10 µM was 45.5%. For `CNC(=O)c1cc(Oc2ccc3nc(NC(=O)c4ccc(Cl)c(C(F)(F)F)c4)sc3c2)ccn1`, the growth at 10 µM was 59.2%.

Tested on: SK-MEL-5
Assay: Antiproliferative activity against human SK-MEL-5 cells assessed as cell growth at 10^-5 M after 48 hrs by sulforhodamine B assay
Assay type: functional
Details: SK-MEL-5, 48 h, read-out: Activity
`CNC(=O)c1cc(Oc2ccc3nc(NC(=O)c4ccc5c(c4)OCCO5)sc3c2)ccn1` showed a growth at 10 µM of 95.8%. `CNC(=O)c1cc(Oc2ccc3nc(NC(=O)c4ccc(Cl)c(C(F)(F)F)c4)sc3c2)ccn1` showed a growth at 10 µM of 70.9%.

Tested on: MDA-MB-468
Assay: Antiproliferative activity against human MDA-MB-468 cells assessed as cell growth at 10^-5 M after 48 hrs by sulforhodamine B assay
Assay type: functional
Details: MDA-MB-468, 48 h, read-out: Activity
In the case of `CNC(=O)c1cc(Oc2ccc3nc(NC(=O)c4ccc5c(c4)OCCO5)sc3c2)ccn1`, the growth at 10 µM is reported as 108%. With `CNC(=O)c1cc(Oc2ccc3nc(NC(=O)c4ccc(Cl)c(C(F)(F)F)c4)sc3c2)ccn1` the growth at 10 µM was 48.5%.
